{
  "source": "paper PMC6624297",
  "about": "(Cell Death & Disease, 2019)",
  "key": {"[1]": {"biological_target": "BRaf kinase (Homo sapiens, UniProt P15056)", "sequence (P15056 whole entry)": "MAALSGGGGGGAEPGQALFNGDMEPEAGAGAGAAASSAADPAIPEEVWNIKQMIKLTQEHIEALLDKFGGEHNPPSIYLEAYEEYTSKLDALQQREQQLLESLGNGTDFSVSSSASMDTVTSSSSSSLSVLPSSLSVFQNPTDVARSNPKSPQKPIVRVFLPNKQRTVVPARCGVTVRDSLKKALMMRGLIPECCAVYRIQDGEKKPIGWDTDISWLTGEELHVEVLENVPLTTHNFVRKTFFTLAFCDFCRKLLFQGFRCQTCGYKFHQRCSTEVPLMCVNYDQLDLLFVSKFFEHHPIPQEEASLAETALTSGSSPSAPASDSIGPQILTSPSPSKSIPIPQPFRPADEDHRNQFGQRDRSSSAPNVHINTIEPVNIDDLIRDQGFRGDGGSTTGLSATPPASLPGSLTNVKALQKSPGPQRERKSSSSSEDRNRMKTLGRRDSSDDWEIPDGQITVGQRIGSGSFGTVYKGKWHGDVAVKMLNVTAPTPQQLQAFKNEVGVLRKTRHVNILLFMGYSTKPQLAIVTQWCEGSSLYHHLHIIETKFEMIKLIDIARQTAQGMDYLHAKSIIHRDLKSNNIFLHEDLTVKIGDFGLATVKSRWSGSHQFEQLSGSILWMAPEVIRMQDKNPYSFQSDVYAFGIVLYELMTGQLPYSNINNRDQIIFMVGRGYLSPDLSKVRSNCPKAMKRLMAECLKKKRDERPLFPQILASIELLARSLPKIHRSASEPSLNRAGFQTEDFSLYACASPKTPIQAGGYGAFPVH", "experiment": "ADP-Glo kinase assay, BRaf", "assay_type": "biochemical", "settings": "averages from triplicate assays", "procedure": "The ADP-Glo™ kinase assay (Promega, Madison, WI) was used to screen target compounds for their inhibition effects for BRaf, EGFR kinase. The kinase assay was carried out in a 96-well plate, in a volume of 25 μL HEPES (pH 7.3) solvent containing 1.6 μg/mL EGF, and 20 ng of EGFR kinase, or 50 ng BRaf kinase, and 10 μM ATP (Promega, Madison, WI). […] Reactions in each well were started immediately by adding ATP and kept going for half an hour under 30 °C in a constant temperature incubator (Bluepard, Shanghai, China). After the plate cooled for 5 min at room temperature, 25 μl of ADP-Glo reagent was added into each well to stop the reaction and consume the remaining […] within 40 min. At the end, 50 μl of kinase detection reagent was added into the well and incubated for 1 h to produce a luminescence signal."}, "[2]": {"test_system": "HCT-116 cells", "experiment": "MTT assay HCT-116", "assay_type": "cell-based", "settings": "Homo sapiens, 24h of treatment, mean ± SD", "procedure": "Details are given in Supplementary Materials and Methods. Using probability unit and weighted regression method to calculate the IC50 value of compounds.\nTotal cells in the logarithmic growth phase were collected, digested using 0.25% pancreatic enzymes, and then diluted into single-cell suspensions using phosphate-buffered solution (PBS). These cells were seeded into 96-well plates at 4× 10^3-5× 10^3 cells per well (100 µL per well) and then A549, H460, OVCAR-3, SGC7901, MDA-MB-231, HCT116 and HepG2 were cultured at 37°Cin an incubator containing 5% CO2. After cell complete attachment, 100 µL of different concentrations of compounds (0.625 μM, 1.25 μM, 2.5μM, 5 μM, 10 μM) were added to the cells after the nutrient solution in each well was discarded, while no compound except 0.1% DMSO was added to cells in the control group; at the same time, each concentration was set up to 5 wells. In addition, 5 wells in each 96-well plate only received 100 µL of nutrient solution as a blank control. The plates were taken out after the cells were incubated with compounds for 24 h, and 20 µL of MTT solution (5 mg/mL) (Wuhan Boster Biotechnology Limited Company, Wuhan, China; item No. AR1156) was added into all the wells. After another time of incubation for 4 h at 37 °C, the nutrient solution in each well was discarded slowly, and 150 µL of DMSO was added to each well. The plates were shaken on a shaking table for 20 min. When the crystals were fully dissolved, the blank wells were used to zero the plate reader. The optical density (OD) of each well was detected at 490 nm. The IC50 value was determined as the concentration of the inhibitor that caused 50% inhibition. Using probability unit and weighted regression method to calculate the IC50 value of compounds."}, "[3]": {"test_system": "GES-1 cell line", "experiment": "Selectivity index against GES-1", "assay_type": "cell-based", "settings": "SI = CC50/IC50"}, "[4]": {"test_system": "H460 cells", "experiment": "Cell cycle PI staining FACS, H460", "assay_type": "cell-based, human", "settings": "H460, 0.5, 1.0, 1.5 μM, 24 h", "text": "TS is a crucial enzyme in the DNA synthesis stage. When it is inhibited, first to show cell cycle arrest at G1/S phase. […] Flow cytometry show (Fig. 3), as the concentration of the compound increases, the cells in the G0/G1 phase increase, the cells in the S phase and the G2/M phase decrease. Eventually, the proliferation of cancer cells was inhibited by the G1/S phase arrest of the compound L14e."}, "[5]": {"test_system": "A549 cells", "experiment": "Transwell migration and wound healing, A549", "assay_type": "cell-based, human", "settings": "A549, 0.5, 1.0, 1.5 μM, 24 h", "procedure": "Cell migration ability was measured using transwell chambers (8-μm pore size; Corning Costar, Cambridge, MA, USA). For the transwell assay, A549 and H460 cells suspended in serum-free RPMI-1640 medium containing different concentrations of L14e (0, 0.5, 1.0, and 1.5 μM) were seeded into the upper chamber. The lower chamber contained RPMI-1640 medium supplemented with 20% serum. After 24 h incubation, the filters were fixed in methanol and stained with 0.1% crystal violet. The upper faces of the filters were gently abraded, and the lower faces with cells migrated across the filters were imaged and counted under the microscope. For wound healing assays, cells were placed into 6-well plates and cultured until 100% confluence. An artificial scratch was created using a 200 μL pipette tip. Add serum-free RPMI-1640 medium containing different concentrations of drugs. At 24 h after culturing in serum-free medium, wound closure images were captured in the same field under magnification. Cell healing rates were calculated by the fraction of cell coverage across the line. These experiments were performed in triplicate and repeated three times."}, "[6]": {"experiment": "HPLC analysis of stability in cell culture medium", "assay_type": "physicochemical", "procedure": "The HPLC system consisted of e2695 Separations Module pump coupled to a 2489 UV/Visible detector (Waters Corp., Milford, MA, USA). Chromatograms was achieved on a Waters BDS C18 column (200 mm × 4.6 mm, 5 um). Detection was performed at a wavelength of 260 nm at 37 °C. The mobile phase consisted of 0.1% phosphoric acid water /methanol (50/50, v/v) at a flow rate of 1.0 mL/min. A10 µL of sample was injected. The results are loaded in the supplemental file."}, "[7]": {"test_system": "FVB mice", "experiment": "Toxicity test in FVB mice", "assay_type": "in vivo", "settings": "3 weeks", "procedure": "Blood was collected from euthanized mice under isoflurane-induced deep anesthesia by cardiac puncture. After allowing blood coagulation at 4 °C, serum was collected by centrifugation at 3000 rpm for 10 min at 4 °C. Analysis of the level of ALT, AST, Glu and CRE in the serum was performed using a veterinary hematology analyzer (Fuji DRI-Chem 3500 s, Fujifilm, Tokyo, Japan) according to the manufacturer’s provided protocols. The histopathological changes in liver, lung, brain, and kidney were evaluated by using HE-stained section of the tissues (This part of the results is in the supplementary document).\nTissues were fixed in 10% neutral-buffered formalin for 24 h, embedded in paraffin, cut into 4-μm-thick sections, deparaffinized with xylene and processed with a graded ethanol series. Next, the sections were stained with HE and were observed using Eclipse Ts2 microscope (Nikon)."}},
  "data": [
    {"smiles": "O=C(Nc1cccc(Cl)c1)Nc1ccccc1NS(=O)(=O)c1c[nH]c(=O)[nH]c1=O", "note": "[Compound L14e, N'-(3-chlorophenyl)-2-(2,4-dihydroxypyrimidine-5-sulfonamido)phenyl urea]", "values": [
      {"measurement": "IC50", "setting": "[1]", "result": 1.09, "unit": "µM"},
      {"measurement": "IC50", "setting": "[2]", "result": "1.98 ± 0.18", "unit": "µM"},
      {"measurement": "SI (Selectivity index) GES-1", "setting": "[3]", "result": 8.58},
      {"measurement": "effect on cell cycle", "setting": "[4]", "result": "arrest the cell cycle in the G1/S phase"},
      {"measurement": "effect on cell migration", "setting": "[5]", "result": "significantly inhibited the migration"},
      {"measurement": "HPLC-UV Measure Concentration", "setting": "[6]; nominal 0.625 µM, 1h", "result": "0.621 ± 0.005", "unit": "µM"},
      {"measurement": "HPLC-UV Measure Concentration", "setting": "[6]; nominal 0.625 µM, 12h", "result": "0.623 ± 0.001", "unit": "µM"},
      {"measurement": "HPLC-UV Measure Concentration", "setting": "[6]; nominal 0.625 µM, 24h", "result": "0.625 ± 0.002", "unit": "µM"},
      {"measurement": "HPLC-UV Measure Concentration", "setting": "[6]; nominal 0.625 µM, 36h", "result": "0.625 ± 0.001", "unit": "µM"},
      {"measurement": "HPLC-UV Measure Concentration", "setting": "[6]; nominal 1.25 µM, 1h", "result": "1.246 ± 0.005", "unit": "µM"},
      {"measurement": "HPLC-UV Measure Concentration", "setting": "[6]; nominal 1.25 µM, 12h", "result": "1.239 ± 0.003", "unit": "µM"},
      {"measurement": "HPLC-UV Measure Concentration", "setting": "[6]; nominal 1.25 µM, 24h", "result": "1.253 ± 0.007", "unit": "µM"},
      {"measurement": "HPLC-UV Measure Concentration", "setting": "[6]; nominal 1.25 µM, 36h", "result": "1.242 ± 0.009", "unit": "µM"},
      {"measurement": "HPLC-UV Measure Concentration", "setting": "[6]; nominal 2.5 µM, 1h", "result": "2.510 ± 0.020", "unit": "µM"},
      {"measurement": "HPLC-UV Measure Concentration", "setting": "[6]; nominal 2.5 µM, 12h", "result": "2.506 ± 0.021", "unit": "µM"},
      {"measurement": "HPLC-UV Measure Concentration", "setting": "[6]; nominal 2.5 µM, 24h", "result": "2.430 ± 0.002", "unit": "µM"},
      {"measurement": "HPLC-UV Measure Concentration", "setting": "[6]; nominal 2.5 µM, 36h", "result": "2.483 ± 0.050", "unit": "µM"},
      {"measurement": "HPLC-UV Measure Concentration", "setting": "[6]; nominal 5 µM, 1h", "result": "5.001 ± 0.010", "unit": "µM"},
      {"measurement": "HPLC-UV Measure Concentration", "setting": "[6]; nominal 5 µM, 12h", "result": "4.963 ± 0.005", "unit": "µM"},
      {"measurement": "HPLC-UV Measure Concentration", "setting": "[6]; nominal 5 µM, 24h", "result": "5.012 ± 0.023", "unit": "µM"},
      {"measurement": "HPLC-UV Measure Concentration", "setting": "[6]; nominal 5 µM, 36h", "result": "4.980 ± 0.020", "unit": "µM"},
      {"measurement": "HPLC-UV Measure Concentration", "setting": "[6]; nominal 10 µM, 1h", "result": "10.000 ± 0.049", "unit": "µM"},
      {"measurement": "HPLC-UV Measure Concentration", "setting": "[6]; nominal 10 µM, 12h", "result": "9.908 ± 0.100", "unit": "µM"},
      {"measurement": "HPLC-UV Measure Concentration", "setting": "[6]; nominal 10 µM, 24h", "result": "9.930 ± 0.100", "unit": "µM"},
      {"measurement": "HPLC-UV Measure Concentration", "setting": "[6]; nominal 10 µM, 36h", "result": "9.850 ± 0.150", "unit": "µM"},
      {"measurement": "changes in body weight compared with control mice", "setting": "[7]; FVB mice, 40, 80, 160 mg/kg", "result": "minimal"},
      {"measurement": "serum levels of AST, ALT, GLU and creatinine", "setting": "[7]; FVB mice, 40, 80, 160 mg/kg", "result": "within the reference ranges"},
      {"measurement": "toxicity to mice (overall)", "setting": "[7]; FVB mice, 40, 80, 160 mg/kg", "result": "minimal toxicity"},
      {"measurement": "histopathological changes in liver, lung, brain, and kidney (HE staining)", "setting": "[7]; mice", "result": "no visible pathological changes"}
    ]}
  ]
}
